According to patent US20060148009A1, “Prediction and assessment of immunogenicity” (Xencor, Inc., priority 2004, published 2006):

Test system: MHC class II proteins on B cells (DRB1*0701 DQA1*0201 DQB1*0202)
Test: Peptide binding assay: competition of biotinylated EBV280-290 binding to B cells, flow cytometry
Conditions: FIG. 29
Description: Peptide binding to MHC class II proteins on the surface of Epstein-Barr virus-transformed B lymphocytes was tested by quantitative flow cytometric analysis (Busch et al. 1990), with modifications. Low resolution HLA typed B cell lines (DR2 and DR7) were obtained from the Coriell Institute for Medical Research (Camden, N.J.). Those cell lines were HLA typed at high resolution for DRB1, DQA1 and DQB1. The B cell lines GM03107, GM08605, and Jesthom were selected for binding studies. The following MHC allele and reference peptide combinations were used: DRB1*0101 and influenzae peptide HA307-319, […] (SEQ ID NO:48) (Busch, R. 1991); DRB1*0701 and Epstein-Barr virus peptide EBV280-290, […] (SEQ ID NO:49) (Omiya et al., 2002); DRB1*1501 and myelin basic protein MBP84-100, […] (SEQ ID NO:50) (Fridkis-Hareli et al., 2001). A biotin molecule followed by a caproic acid-caproic acid spacer was added to the N-terminus of the reference peptides. The binding of biotinylated peptides to the MHC molecules was tested at various pH values. The pH 5.5 was used to test competition with IFN-β peptides. Detection of peptide binding was done with streptavidin-AlexaFluor546 (Molecular Probes, Eugene, O.R.) in a PCA-96 flow cell counter (Guava Technologies Inc., Hayward, Calif.). […]

Sequence: HYLKAKEYSHCAWTIVR
- competition of EBV280-290 peptide binding to B cells: dose-dependent competition
